Source: patent US20110098442A1, “PEPTIDES AND PEPTIDE DERIVATIVES AS WELL AS PHARMACEUTICAL COMPOSITIONS CONTAINING THE SAME” (priority 2006, published 2011)
Groups on a side chain read outwards from the residue. No end group written: not given here.

Tested on: mouse-adapted Dengue virus (DEN-2, strain P23085)
Test: Dengue virus infection in mice, mortality/survival
Assay type: in vivo, BALB/c mice
Conditions: 4.8 mg/kg/day intramuscular once a day for 5 days, starting on day 3 after infection, end of treatment period (day 10)
Description: A further possibility for establishing the biological effect in vivo is the reduction or complete suppression of mortality because of an infection with haemolytic viruses or bacteria. For this purpose, mice are, as described in Example 8, for instance infected with a dose of Dengue viruses, wherein 50% of the animals die within a period of 5-20 days after infection. The inventive compounds bring about a reduction of this mortality at a dose ranging from 0.001 to 500 mg/kg body weight, preferably at a dose ranging from […] body weight.
The biological effect of the compound of Example 3 was established in a model of Dengue virus infection in mice. 5-week-old male BALB/c mice were divided into 2 groups. All animals were infected subcutaneously with a mouse-adapted Dengue virus (DEN-2, strain P23085 at a dose of 1-2 LD50. 15 mice received 0.1 ml of 0.8% saline as intramuscular injection (control). The treated animals received 4.8 mg/kg/day of the agent of Example 3 as an intramuscular injection (diluted in 0.1 ml of 0.8% saline) once a day for 5 days, starting on day 3 after the virus infection.
At the end of the treatment period (day 10) the survival rates were compared.

Gly-His-Arg-Pro-Leu-Asp-Lys-Lys-Arg-Glu-Glu-Ala-Pro-Ser-Leu-Arg-Pro-Ala-Pro-Pro-Pro-Ile-Ser-Gly-Gly-Gly-Tyr-Arg-Cys-(S-succinimido-PEG20K)-amide (GHRPLDKKREEAPSLRPAPPPISGGGYRC([succinimido-PEG 20 kDa])-NH2) [Example 3]
Mortality (dead animals/animals in group) (infection dose 1-2 LD50): 0/10
Mortality Percentage (p < 0.05 vs control): 0%
